Broadly, the melting point is the temperature of the solid-liquid transition. By logP is commonly meant the decadic logarithm of the partition coefficient of the neutral form, usually between octanol and water.

The record followed here is patent US7189680B2, “5-halo-6-aryl[1,2,4]triazolo[1,5-a]pyrimidin-7-amines” (Bayer Cropscience AG, priority 2001, dated 2007).

A short description of data set [1]: logP determination by HPLC (EEC directive 79/831 Annex V. A8). In kind it is physicochemical. The following applies: for logP*: HPLC gradient method, acetonitrile/0.1% aqueous phosphoric acid, Table 1; for logP: Table 2, carbamates of formula (VIII). The method, then:
*) The logP values were determined in accordance with EEC directive 79/831 Annex V. A8 by HPLC (gradient method, acetonitrile/0.1% aqueous phosphoric acid)

The subject of data set [2] is Fusarium nivale (var. majus). The experiment in a line: Fusarium nivale (var. majus) test (wheat)/protective. In kind it is in vivo. The following applies: protective, 500 g/ha, evaluation 4 days following inoculation. As to the method:
(§1) To produce a suitable preparation of active compound, one part by weight of active compound is mixed with the stated amounts of solvent and emulsifier, and the concentrate is diluted with water to the desired concentration.
To test for protective activity, young plants are sprayed with the active compound preparation at the application rate indicated. After the spray coating has dried on, the plants are sprayed with a conidia suspension of Fusarium nivale (var. majus).
The plants are placed in a greenhouse under transparent incubation hoods at a temperature of about 15° C. and a relative humidity of about 100%.
Evaluation is made 4 days following inoculation. 0% denotes an efficacy corresponding to that of the control, whereas an efficacy of 100% means that no infestation is observed.

The subject of another data set is Venturia inaequalis. Put plainly: Venturia test (apple)/protective. The following applies: protective, 100 g/ha, evaluation 10 days following inoculation. In kind it is in vivo. The method, then: as §1
To test for protective activity, young plants are sprayed with the active compound preparation at the application rate indicated. After the spray coating has dried on, the plants are inoculated with an aqueous conidia suspension of the apple scab causative organism, Venturia inaequalis, and then remain in an incubation cabin for 1 day at about 20° C. and 100% relative humidity.
The plants are placed in a greenhouse at a temperature of about 15° C. and a relative humidity of about 90%.
Evaluation is made 10 days following inoculation. 0% denotes an efficacy corresponding to that of the control, whereas an efficacy of 100% means that no infestation is observed.

Another data set has as its system Alternaria solani. Put plainly: Alternaria test (tomato)/protective. In kind it is in vivo. The following applies: protective, 750 g/ha, evaluation 7 days after inoculation. The method, then: To produce an appropriate preparation of active compound, 1 part by weight of active compound is mixed with the stated amounts of solvent and emulsifier, and the concentrate is diluted with water to the desired concentration.
To test for protective activity, young tomato plants are sprayed with the active compound preparation at the application rate indicated. One day after treatment, the plants are inoculated with a spore suspension of Alternaria solani and then stand at 100% relative humidity and 20° C. for 24 h. The plants subsequently stand at 96% relative humidity and a temperature of 20° C.
Evaluation is made 7 days after inoculation. 0% denotes an efficacy corresponding to that of the control while an efficacy of 100% means that no infestation is observed.

Molecule `CN(C)Nc1c(-c2c(F)cc(F)cc2F)c(Cl)nc2ncnn12` [Example 1, 5-chloro-7-(2,2-dimethylhydrazino)-6-(2,4,6-trifluorophenyl)[1,2,4]-triazolo[1,5-a]pyrimidine] registered a melting point of 165 to 168 °C.
Turning to `NN(CC1CCC1)c1c(-c2c(F)cc(F)cc2F)c(Cl)nc2ncnn12` [Example 169], in data set [1], the “logP*” value worked out at 3.06.
For the molecule `CC(C)CN(N)c1c(-c2c(F)cccc2F)c(Cl)nc2ncnn12` [Example 170], the “logP*” value in data set [1] was 2.72.
Same read-out and setting: the same measure for `NN(CC1CC1(Cl)Cl)c1c(-c2c(F)cccc2Cl)c(Cl)nc2ncnn12` (centres unmarked) [Example 171]: 3.11; for `CC(C)CN(N)c1c(-c2ccc(F)cc2Cl)c(Cl)nc2ncnn12` [Example 172]: 3.15.
Same read-out and setting: the same measure for `NN(CC1CCC1)c1c(-c2c(F)cccc2Cl)c(Cl)nc2ncnn12` [Example 173]: 3.07.
Molecule `CCOC(=O)N(CC(C)C)OC` [Example 178] showed a log partition coefficient (logP) in data set [1] of 2.38.
The same measure, in the same setting: the same measure for `C=C(C)CN(OC)C(=O)OCC` [Example 179]: 2.06.
The molecule `CCCN(N)c1c(-c2c(F)cc(F)cc2F)c(Cl)nc2ncnn12` [drawing 43] yielded an Efficacy in % in data set [2] of 80%.
The molecule `CCN(N)c1c(-c2c(F)cc(F)cc2F)c(Cl)nc2ncnn12` [drawing 44] showed an Efficacy in % in data set [2] of 80%.
Regarding `CNN(C)c1c(-c2c(F)cc(F)cc2F)c(Cl)nc2ncnn12` [drawing 45], in data set [2], the Efficacy in % is given as 93%.
Consider `CN(C)Nc1c(-c2c(F)cc(F)cc2F)c(Cl)nc2ncnn12` [drawing 46], for which the Efficacy in % in the data set with Venturia inaequalis stood at 94%.
The molecule `CCCN(N)c1c(-c2c(F)cc(F)cc2F)c(Cl)nc2ncnn12` [drawing 47] returned an Efficacy in % with Alternaria solani of 94%.
On the same count and under the same terms, the same measure for `CCN(N)c1c(-c2c(F)cc(F)cc2F)c(Cl)nc2ncnn12` [drawing 48]: 89%; for `C=CCNNc1c(-c2c(F)cc(F)cc2F)c(Cl)nc2ncnn12` [drawing 49]: 94%; for `NN(CC1CCCCC1)c1c(-c2c(F)cc(F)cc2F)c(Cl)nc2ncnn12` [drawing 50]: 94%.
Same read-out and setting: the same measure for `CC(C)(C)NNc1c(-c2c(F)cc(F)cc2F)c(Cl)nc2ncnn12` [drawing 51]: 94%.
